Source: patent US20240041976A1, “COMPOSITION AND USE” (priority 2020, published 2024)

B1: Garvicin KS: three-peptide leaderless bacteriocin (GarA, GarB, GarC; SEQ ID NO:6-8), peptides synthesized (peptide, listed as Lactococcus garvieae)
chain 1: MGAIIKAGAKIVGKGVLGGGASWLGWNVGEKIWK
chain 2: MGAIIKAGAKIIGKGLLGGAAGGATYGGLKKIFG
chain 3: MGAIIKAGAKIVGKGALTGGGVWLAEKLFGGK

Key:
E. faecium LMGT 3104 = assay: microbe, parasite or virus in culture; format: cell-based, Enterococcus faecium; details: Enterococcus faecium, LMGT3104, read-out: MIC, single antimicrobial
Procedure: (§1) Antimicrobial activity was measured using the AAMP assay (Wiegand et al., 2008, Nat. Protoc., Vol. 3(2), p 163-175).
(§2) Synergy testing was done with a microtiter plate checkerboard assay as previously described (Orhan et al., 2005, J. Clin. Microbiol., Vol. 43(1), p 140-143). Briefly, equal amounts of antimicrobial A were applied on microtiter plate 1 in wells A1-H1 and then diluted two-fold to wells 2-12. Similarly, equal amounts of antimicrobial B were applied on microtiter plate 2 in wells A1-A12 and diluted two-fold in wells B-H. Volumes of 50 μl of antimicrobial A from each well of microtiter plate 1 were transferred into microtiter plate 3, except for wells H1-H12. Similarly, the same volumes were transferred from microtiter plate 2 into plate 3, except for wells A1-A8. A 100 μl volume of 25 times diluted ON bacterial culture of MRSA was transferred into each well of plate 3. A 50 μl volume of pure broth was added into each well in lines H1-H12 and A1-A8 which were used to estimate MIC values of pure substances (blank).
(§3) Antimicrobial activity was measured using the AAMP assay as described in Example 2.
(§4) Synergy testing was performed as in Example 2.

MRSA ATCC 33591 = assay: microbe, parasite or virus in culture; format: cell-based, Staphylococcus aureus; details: Staphylococcus aureus, 24 h, read-out: MIC, single antimicrobial
Procedure: as §1, §2, §3, §4

[1] = system: S. aureus biofilms (six strains); assay: BOAT, summary over strains; format: cell-based, Staphylococcus aureus
Procedure: The BOAT assay was performed as described previously (Gronseth et al., 2017, Int. J. Pediatr. Otorhinolaryngol., Vol. 103, p 58-64) with some modifications. The serial dilutions of the antimicrobials were prepared in challenge plates as follows: 175 μl of TSB were transferred in each row of a 96-well microtiter plate, except for the first row, according to the number of microbial strains to treat. In the first row of the plate, the antimicrobials were diluted to their respective working concentrations in a final volume of 350 μl of TSB. From the first row, 175 μl of the antimicrobial dilutions were then transferred to the second row of the plate and further serially diluted to the bottom of the plate. The same procedure was followed to prepare the controls, except that instead of the antimicrobials an equivalent volume of the respective vehicles were used. […] The results were then assessed by monitoring the development (or not) of red formazan (red colour), denoting the retention of metabolic activity by bacterial cells (Moussa et al., 2013, J. Mycol., Vol. 2013; Perez et al., 2010, Lett. Appl. Microbiol., Vol. 51, p 331-337). […] The amount of extracted dye, reflecting the degree of bacterial cell metabolic activity, was then quantified by spectrophotometric readings at 492 nm.

[2] = system: Methicillin-Resistant Staphylococcus aureus; format: in vivo, mice; details: repeat on larger groups; data not shown
Procedure: The experiment was performed essentially as set out in Example 2, except that the following regimes as described below, were used.
50-70 μl of cream was applied per wound.
Treatment was daily for 4 days.
The rifampicin/MP1 experiment was repeated on a larger group of mice in each category (8 mice for each of rifampicin, MP1, rifampicin+MP1, 8 mice with APO base cream 30% as used for rifampicin and MP1, 7 mice untreated). Seven mice were also treated with fucidin cream (2% fusidic acid in a cream base) as a positive control.

[3] = system: clinical S. aureus strains from leprosy-associated skin ulcers (biofilms); assay: BOAT on clinical isolates; format: cell-based, Staphylococcus aureus; details: 14 clinical S. aureus isolates
From the text: Leprosy patients with plantar ulcers who were registered at LEPRA Society, BPHRC, Hyderabad, India during December 2018 through May 2019 (n=31) were enrolled into the study after obtaining an informed consent. The study protocol was approved by the Institutional Ethical Committee at LEPRA Society. A total of thirty-one wound swabs were collected using sterile pure viscose swab (Hi-media, Mumbai, India) and transported immediately for further processing to the microbiology laboratory. One swab was collected from each leprosy foot ulcer. Each swab was inoculated on Blood and McConkey agar and incubated at 37° C. overnight and the plates were examined for growth on the following day. Cultures were identified by colony morphology, Gram staining and other standard tests. […]
The BOAT assay was performed as described previously (Gronseth et al., 2017, Int. J. Pediatr. Otorhinolaryngol., Vol. 103, p 58-64) with some modifications. […] The results were then assessed by monitoring the development (or not) of red formazan (red colour), denoting the retention of metabolic activity by bacterial cells (Moussa et al., 2013, J. Mycol., Vol. 2013; Perez et al., 2010, Lett. Appl. Microbiol., Vol. 51, p 331-337). […] The amount of extracted dye, reflecting the degree of bacterial cell metabolic activity, was then quantified by spectrophotometric readings at 492 nm.

Row | Molecule | MIC (E. faecium LMGT 3104) [µg/mL] | MIC (MRSA ATCC 33591) [µg/mL] | effect on biofilm-associated metabolic activity (BOAT) ([1]; six strains, up to 5 mg/ml garvicin KS, 0.1 mg/ml micrococcin P1) | increase in resistance compared to the planktonic state ([1]; some of the biofilm producers) | antimicrobial effect in the mouse skin wound model [2] | antimicrobial activity in BOAT on clinical isolates [3]
1 | C/C=C(\NC(=O)c1csc(-c2csc(-c3ccc4c(n3)-c3csc(n3)[C@H]([C@@H](C)O)NC(=O)c3csc(n3)[C@H](C(C)C)NC(=O)c3csc(n3)/C(=C/C)NC(=O)[C@H]([C@@H](C)O)NC(=O)c3csc-4n3)n2)n1)C(=O)NC[C@@H](C)O [MP1, micrococcin P1] | 2.5 | 2.5 | ineffective against all the strains | over 160 fold | Neither MP1 nor the cream base showed any antimicrobial effect | 
2 | B1 |  |  |  |  |  | showed antimicrobial activity against all the strains
